These are literature values, as cited in publication PMC11185183 (PNAS Nexus, 2024).

This data set relates to GC-B.

As for `CN(C)CCN1CCCC(C(=O)Nc2nc3c(F)cc(F)cc3s2)C1` (stereo not shown) [MCUF-651], the “action on GC-B” value is listed as “lacked any action”.
